# Entries after “also recorded” stand apart in the source; their conditions may differ.
# Key:
# [1] = biological target: T1, human serotonin transporter (Homo sapiens, UniProt P31645); experiment: Cerep broad selectivity radioligand binding panel
# T1 construct: Cerep
# Experimental: (§1) Broad selectivity was assessed at Cerep (Celle l’ Evescault, France), as described in the Cerep catalog, though the determination of the effect of PMP-311 and PMP-072 in in vitro radioligand receptor binding assays with 52 different receptors, channels, and transporters. The specific ligand binding to the receptors is defined as the difference between the total binding, and the nonspecific binding determined in the presence of an excess of unlabelled ligand. The results are expressed as a percent of control specific binding and as the mean percent inhibition of control specific binding obtained in the presence of 10 μM PMP-311 and PMP-072. Individual and mean values are presented in the results section. The IC50 values (concentration causing a half-maximal inhibition of control specific binding) and Hill coefficients (nH) were determined by non-linear regression as described above.
# [2] = biological target: T2, α1β1 nAChR (muscle receptor) (Homo sapiens, UniProt P02708+P07510+P11230+Q07001); experiment: α-bungarotoxin binding to TE671 cell membranes
# T2 construct: host or cells: TE671 cell membranes
# T2 sequence (P02708 21-457): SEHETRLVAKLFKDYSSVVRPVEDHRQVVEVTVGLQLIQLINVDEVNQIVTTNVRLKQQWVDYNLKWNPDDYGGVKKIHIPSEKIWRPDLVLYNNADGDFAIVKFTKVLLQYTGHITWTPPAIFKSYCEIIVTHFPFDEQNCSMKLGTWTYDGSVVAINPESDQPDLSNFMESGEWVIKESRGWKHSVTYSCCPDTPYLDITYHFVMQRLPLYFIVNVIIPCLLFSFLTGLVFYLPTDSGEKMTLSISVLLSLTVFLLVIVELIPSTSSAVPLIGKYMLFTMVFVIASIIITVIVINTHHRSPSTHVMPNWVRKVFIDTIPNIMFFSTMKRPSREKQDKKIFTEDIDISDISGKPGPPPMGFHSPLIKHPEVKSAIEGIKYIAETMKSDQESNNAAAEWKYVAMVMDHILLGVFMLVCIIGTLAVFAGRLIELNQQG
# T2 sequence (Q07001 22-517): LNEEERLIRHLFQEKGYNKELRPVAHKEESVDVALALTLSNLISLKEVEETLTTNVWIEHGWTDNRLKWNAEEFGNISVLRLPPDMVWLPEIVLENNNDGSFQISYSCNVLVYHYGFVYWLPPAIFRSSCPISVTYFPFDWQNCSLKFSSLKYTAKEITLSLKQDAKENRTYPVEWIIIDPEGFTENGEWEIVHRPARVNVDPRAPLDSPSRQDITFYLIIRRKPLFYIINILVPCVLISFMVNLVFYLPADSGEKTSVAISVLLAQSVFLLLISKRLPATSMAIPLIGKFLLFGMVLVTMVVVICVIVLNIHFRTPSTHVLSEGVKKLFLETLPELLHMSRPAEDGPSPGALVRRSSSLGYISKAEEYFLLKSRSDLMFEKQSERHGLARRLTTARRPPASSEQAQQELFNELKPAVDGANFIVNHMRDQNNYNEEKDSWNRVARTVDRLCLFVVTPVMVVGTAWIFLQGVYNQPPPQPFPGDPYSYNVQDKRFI
# T2 sequence (P07510 23-517): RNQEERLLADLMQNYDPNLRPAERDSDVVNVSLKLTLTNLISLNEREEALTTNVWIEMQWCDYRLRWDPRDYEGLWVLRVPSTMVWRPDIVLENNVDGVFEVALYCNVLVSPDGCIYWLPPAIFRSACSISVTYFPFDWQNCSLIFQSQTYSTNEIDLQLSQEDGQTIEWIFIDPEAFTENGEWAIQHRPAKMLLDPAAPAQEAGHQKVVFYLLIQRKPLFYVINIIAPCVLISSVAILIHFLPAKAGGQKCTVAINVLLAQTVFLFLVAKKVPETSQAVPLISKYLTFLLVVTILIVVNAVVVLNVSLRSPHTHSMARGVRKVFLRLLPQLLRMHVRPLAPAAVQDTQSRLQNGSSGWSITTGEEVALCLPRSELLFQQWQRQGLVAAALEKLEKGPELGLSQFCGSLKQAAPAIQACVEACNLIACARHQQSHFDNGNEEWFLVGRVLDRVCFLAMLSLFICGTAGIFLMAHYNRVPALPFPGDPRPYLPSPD
# T2 sequence (P11230 24-501): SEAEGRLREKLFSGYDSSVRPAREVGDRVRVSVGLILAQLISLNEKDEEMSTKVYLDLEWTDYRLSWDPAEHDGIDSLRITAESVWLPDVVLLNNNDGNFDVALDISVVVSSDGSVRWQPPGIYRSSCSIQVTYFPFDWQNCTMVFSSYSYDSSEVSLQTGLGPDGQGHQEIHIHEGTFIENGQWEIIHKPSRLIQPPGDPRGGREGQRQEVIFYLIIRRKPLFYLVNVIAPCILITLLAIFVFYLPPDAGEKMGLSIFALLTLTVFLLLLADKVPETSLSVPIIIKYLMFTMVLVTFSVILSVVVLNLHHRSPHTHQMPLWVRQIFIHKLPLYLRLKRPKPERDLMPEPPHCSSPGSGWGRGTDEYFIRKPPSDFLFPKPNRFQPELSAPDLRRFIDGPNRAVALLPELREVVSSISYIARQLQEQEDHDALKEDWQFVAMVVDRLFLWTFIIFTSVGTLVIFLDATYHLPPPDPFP
# Experimental: as §1
# rat α7 nAChR = rat α7 nAChR (Rattus norvegicus, UniProt Q05941); experiment: cell-based; assay type: binding
# Chain of rat α7 nAChR (Q05941 23-502): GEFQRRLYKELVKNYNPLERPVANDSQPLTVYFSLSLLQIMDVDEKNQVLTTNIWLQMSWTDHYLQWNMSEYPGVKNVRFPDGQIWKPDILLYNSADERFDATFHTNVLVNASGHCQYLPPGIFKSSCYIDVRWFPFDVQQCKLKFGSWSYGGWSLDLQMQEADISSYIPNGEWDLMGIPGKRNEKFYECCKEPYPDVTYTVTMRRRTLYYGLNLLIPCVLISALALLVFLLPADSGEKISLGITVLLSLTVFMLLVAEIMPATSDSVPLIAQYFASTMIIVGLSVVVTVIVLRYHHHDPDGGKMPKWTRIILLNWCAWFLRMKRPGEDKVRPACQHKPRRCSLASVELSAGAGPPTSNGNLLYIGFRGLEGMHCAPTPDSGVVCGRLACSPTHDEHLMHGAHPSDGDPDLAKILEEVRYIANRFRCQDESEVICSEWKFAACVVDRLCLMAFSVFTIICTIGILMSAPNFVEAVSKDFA
# Experimental: Binding studies with rat α7 nAChR were done using the rat pheochromocytoma cell line PC12 that endogenously expresses the α7 nAChR (American Type Culture Collection, Manassas, VA). PC12 cells were maintained in Ham F-12 nutrient mixture, containing 15% horse serum, 2.5% fetal bovine serum (FBS), 2 mM L-glutamine, 1.5 g/L NaHCO3, 100 units of penicillin, and 100 μg streptomycin.
# For the binding assay, PC12 cells were resuspended in binding buffer (phosphate buffered saline with calcium and magnesium, containing 1% FBS and 0.02% NaN3) at 1.5 to 2.7 × 10^6 cells per ml and 55 μl (0.8–1.5 × 10^5 cells per well) was added to a 96-well, v-bottom plate. […]
# Phycoerythrin-labeled streptavidin (streptavidin-PE) (Becton-Dickinson, Franklin Lakes, NJ) was diluted in binding buffer and 50 μl was added to the cells (excluding the cell control) at a 1.0 μg/ml final concentration. […] BTx binding was quantified by fluorescence-activated cell sorting (FACS) analysis. For each concentration of test compound, the displacement of BTx from the α7 nAChR was quantified by measuring the intensity of the fluorescent signal. […] Ki values were calculated from IC50 values using the Cheng-Prusoff equation: Ki=IC50/1+[BTx]/KD
# human α7 nAChR = biological target: T3, human α7 nAChR (Homo sapiens, UniProt P36544); experiment: voltage-clamp electrophysiology in Xenopus oocytes; assay type: biochemical; details: for agonist activity at α7 nAChR ion channel: Xenopus oocyte membrane current, control conditions
# T3 construct: expressed in transfected cells; host or cells: Xenopus laevis oocytes injected with cRNA; clones from Dr. Jon Lindstrom (α7) and Dr. Millet Treinin (RIC-3)
# T3 sequence (P36544 23-502): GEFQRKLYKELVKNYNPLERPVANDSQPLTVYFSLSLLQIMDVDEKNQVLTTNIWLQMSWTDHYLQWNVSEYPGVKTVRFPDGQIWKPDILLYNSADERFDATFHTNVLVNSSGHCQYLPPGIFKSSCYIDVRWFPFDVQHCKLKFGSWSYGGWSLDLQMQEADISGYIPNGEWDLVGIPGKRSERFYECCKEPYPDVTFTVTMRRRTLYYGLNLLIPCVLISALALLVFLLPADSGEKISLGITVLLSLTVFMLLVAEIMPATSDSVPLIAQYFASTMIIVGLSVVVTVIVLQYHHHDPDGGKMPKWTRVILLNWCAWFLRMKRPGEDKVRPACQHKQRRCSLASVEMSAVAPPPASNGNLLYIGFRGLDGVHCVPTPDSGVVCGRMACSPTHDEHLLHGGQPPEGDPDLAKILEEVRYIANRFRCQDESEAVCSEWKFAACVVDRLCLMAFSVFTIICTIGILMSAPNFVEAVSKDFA
# Experimental: Human nAChR receptor clones were obtained from Dr. Jon Lindstrom (University of Pennsylvania, Philadelphia, PA). The RIC-3 clone was obtained from Dr. Millet Treinin (Hebrew University, Jerusalem, Israel). Subsequent to linearization and purification of cloned cDNAs, RNA transcripts were prepared in vitro using the appropriate mMessage Machine kit from Ambion Inc. (Austin, TX).
# The preparation of Xenopus laevis oocytes for RNA expression was conducted as previously described. Stage 5 oocytes were isolated and injected with […] (5–20 ng) of each subunit cRNAs. Recordings were conducted 2–5 days after injection. RNA coding for human α7 nAChR was routinely co-injected with the cDNA for human RIC-3, an accessory protein that improves and accelerates α7 nAChR expression without affecting the pharmacological properties of the receptors.
# Experiments were conducted using OpusXpress6000A (Molecular Devices, Union City, CA) as described before. ACh applications were 12 seconds in duration.
# Each oocyte received two initial control applications of 300 μM ACh, followed by the experimental drug application, and subsequent control application of 300 μM ACh, unless otherwise indicated. Responses to experimental drug applications were determined relative to the preceding ACh control responses in order to normalize the data, compensating for the varying levels of channel expression among the oocytes. Responses for α7 nAChR were calculated as net charge, since peak currents inaccurately report the agonist concentration dependence of α7 nAChR-mediated responses. For experiments measuring the effects of ACh and the experimental compounds on allosterically modulated receptors, following the acquisition of baseline responses, cells were given a 60 s application of 300 μM PNU-120596. […] For all experiments, means and standard error of the mean (SEM) were calculated from the normalized responses of at least four oocytes for each experimental concentration, plotted using Kaleidagraph 3.52 (Synergy Software, Reading, PA), and curves were generated from the Hill equation: Response=IMax[agonist]^n/[agonist]^n+(EC50)^n where Imax denotes the maximal response for a particular agonist/subunit combination, and n represents the Hill coefficient. Imax, n, and the EC50 were all unconstrained for the fitting procedures except in the case of the ACh concentration-response curves.
# α4β2 nAChR = biological target: T4, α4β2 nAChR (Rattus norvegicus, UniProt P09483+P12390); experiment: cytisine binding to rat brain membranes; details: read-out: Ki, α4β2nAChR binding affinity
# T4 construct: tissue Cerep; host or cells: rat brain membranes
# T4 sequence (P09483 31-630): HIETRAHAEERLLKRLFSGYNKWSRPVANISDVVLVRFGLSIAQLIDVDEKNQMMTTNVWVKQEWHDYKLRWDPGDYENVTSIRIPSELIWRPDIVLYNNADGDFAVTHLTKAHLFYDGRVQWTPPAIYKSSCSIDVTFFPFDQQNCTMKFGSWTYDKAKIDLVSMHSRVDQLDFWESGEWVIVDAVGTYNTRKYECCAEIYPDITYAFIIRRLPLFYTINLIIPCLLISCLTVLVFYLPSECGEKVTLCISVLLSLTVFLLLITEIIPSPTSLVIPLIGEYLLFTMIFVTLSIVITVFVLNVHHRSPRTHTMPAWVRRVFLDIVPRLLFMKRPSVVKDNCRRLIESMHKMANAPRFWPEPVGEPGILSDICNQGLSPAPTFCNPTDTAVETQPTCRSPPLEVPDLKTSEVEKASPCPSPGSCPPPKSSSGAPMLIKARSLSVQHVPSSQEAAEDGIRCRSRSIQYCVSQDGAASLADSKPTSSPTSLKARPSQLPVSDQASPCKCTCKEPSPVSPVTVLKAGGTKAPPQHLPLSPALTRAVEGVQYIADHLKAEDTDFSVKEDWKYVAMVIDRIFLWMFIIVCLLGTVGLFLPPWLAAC
# T4 sequence (P12390 25-500): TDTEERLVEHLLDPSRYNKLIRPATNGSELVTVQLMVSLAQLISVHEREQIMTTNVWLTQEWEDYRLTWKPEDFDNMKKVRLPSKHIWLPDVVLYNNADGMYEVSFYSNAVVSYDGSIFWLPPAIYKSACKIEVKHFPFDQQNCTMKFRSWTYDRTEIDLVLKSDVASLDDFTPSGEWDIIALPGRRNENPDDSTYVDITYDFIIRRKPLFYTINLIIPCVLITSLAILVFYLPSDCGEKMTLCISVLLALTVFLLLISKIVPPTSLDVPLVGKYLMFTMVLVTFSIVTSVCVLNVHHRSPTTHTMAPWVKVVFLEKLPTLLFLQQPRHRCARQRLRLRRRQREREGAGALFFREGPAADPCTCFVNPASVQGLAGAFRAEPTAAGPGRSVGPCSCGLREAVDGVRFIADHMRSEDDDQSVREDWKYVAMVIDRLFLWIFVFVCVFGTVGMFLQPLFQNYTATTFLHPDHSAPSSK
# Experimental: as §1
# [3] = tested on: collagen-induced arthritis; experiment: collagen-induced arthritis in DBA/1 mice; details: for disease incidence and onset: 5 mg/kg oral daily day 20-34
# Experimental: Collagen-induced arthritis was induced and evaluated as previously described. The severity of arthritis was assessed using an established semiquantitative scoring system (0–4; 0 = normal, 1 = swelling in 1 joint, 2 = swelling in >1 joint, 3 = swelling in the entire paw, and 4 = deformity and/or ankylosis. The cumulative score for all 4 paws of each mouse was used to represent overall disease severity and progression. Hind paw ankle joint thickness was measured using a caliper For the evaluation of incidence, mice were considered to have arthritis if the arthritis score increased by at least 1 point for 2 or more following days.
# In study 1, we evaluated the role of the two novel α7nAChR-specific modulators in CIA. The receptors were stimulated by oral gavage of PMP-311 (5 mg/kg; n = 15) or PMP-072 (5 mg/kg; n = 17). The compounds were administered once a day from day 20 until the end of the experiment (day 34). Control mice received saline. In study 2, we evaluated the anti-inflammatory effects of different dosages of the α7nAChR-specific agonists. PMP-311 (2 or 10 mg/kg; n = 15) and PMP-072 (10 or 20 mg/kg; n = 15) were administered in the same way as in study 1. In both studies, mice were inspected daily for signs of arthritis and thickness of hind paws was measured using a caliper from day 16 till sacrifice by 2 independent observers (MAvM and JK) who were not aware of the treatment.
# Hind paws were used for radiographic evaluation. Joint destruction was scored on a scale of 0–4, where 0 = no damage, 1 = demineralization, 2 = 1 or 2 erosions, 3 = severe erosions, and 4 = complete destruction of the joints. The radiographs were scored by 2 independent observers (MAvM and MJV) in a blinded manner; minor differences in scoring between the observers were resolved by mutual agreement.
# Hind paws were fixed for 24 hours in 10% buffered formalin and decalcified in 15% EDTA. The paws were then embedded in paraffin, and serial 5 μm sagittal sections of whole hind paws were cut and stained with hematoxylin and eosin (HE). Two independent observers (MAvM and MJV) assessed the tissue for the degree of synovitis by microscopic evaluation, under blinded conditions, as described previously. Synovitis was graded on a scale of 0 (no inflammation) to 3 (severely inflamed joint) based on the extent of infiltration of inflammatory cells into the synovium.
# To evaluate the effects of different treatments, we determined the change in clinical arthritis scores in each mouse from the start of treatment until the end of the experiment. AUC for the change in arthritis scores were calculated. The significance of the differences in the mean changes in scores (clinical, radiologic and histologic) between groups was determined by Kruskal-Wallis test followed by Mann-Whitney U test (SPSS version 12.0.2; SPSS, Chicago, IL). Incidence was compared using Kaplan-Meier survival analysis (GraphPad Prism). P values less than 0.05 were considered statistically significant.
# [4] = study 1, 5 mg/kg oral daily day 20-34
# T1 sequence (P31645 whole entry): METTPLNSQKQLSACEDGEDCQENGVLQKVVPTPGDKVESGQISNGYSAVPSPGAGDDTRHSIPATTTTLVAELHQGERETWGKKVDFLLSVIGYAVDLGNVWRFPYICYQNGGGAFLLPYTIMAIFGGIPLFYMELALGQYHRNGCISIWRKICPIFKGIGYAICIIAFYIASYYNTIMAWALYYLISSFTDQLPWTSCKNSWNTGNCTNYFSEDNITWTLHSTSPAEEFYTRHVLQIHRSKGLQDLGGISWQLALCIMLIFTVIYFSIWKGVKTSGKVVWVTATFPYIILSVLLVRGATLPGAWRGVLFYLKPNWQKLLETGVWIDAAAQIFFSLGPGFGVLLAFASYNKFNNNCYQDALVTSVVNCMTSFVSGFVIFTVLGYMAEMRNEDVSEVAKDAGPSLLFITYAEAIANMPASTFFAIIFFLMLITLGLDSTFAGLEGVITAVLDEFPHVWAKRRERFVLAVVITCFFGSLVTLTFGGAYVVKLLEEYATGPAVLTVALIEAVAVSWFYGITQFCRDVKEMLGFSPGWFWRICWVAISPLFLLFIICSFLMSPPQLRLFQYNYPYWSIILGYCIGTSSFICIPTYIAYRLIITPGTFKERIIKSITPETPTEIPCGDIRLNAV
smiles,measurement,setting,value
"c1cncc(OC[C@@H]2CNCCN2c2nc3ncccc3o2)c1 [PMP-311, (S)-2-(2-((Pyridin-3-yloxy)methyl)piperazin-1-yl)oxazolo[4,5-b]pyridine]",inhibition at 10 µM,[1]; 10 μM,72%
same,Ki,[2],> 100 µM
same,Ki,rat α7 nAChR,0.9 ± 0.2 nM
same,agonist activity at α7 nAChR ion channel,human α7 nAChR,elicited a typical inward current
same,EC50,"human α7 nAChR; Xenopus oocytes, read-out: EC50 of α7 nAChR activation",~200 nM
same,Emax,"human α7 nAChR; net charge, normalized to 300 μM ACh, read-out: maximum response compared to ACh",~85%
same,Ki,α4β2 nAChR,30 nM
same,joint destruction (radiographic score),[3]; 2 mg/kg oral daily,significant reduction in joint destruction
same,mice that developed arthritis,[3]; 2 mg/kg oral daily,14 out of 15
same,paw swelling,[3]; 2 mg/kg oral daily,decreased
same,reduction in arthritis score compared to saline,[3]; 2 mg/kg oral daily,40%
same,synovial inflammation,[3]; 2 mg/kg oral daily,significant reduction
same,animals that did not develop arthritis,[3]; 5 mg/kg oral daily,six out of 15
same,effect on arthritis activity,[3]; 5 mg/kg oral daily,amelioration of clinical signs of arthritis
same,joint destruction (radiographic score),[3]; 5 mg/kg oral daily,significant reduction in joint destruction
same,synovial inflammation (HE staining of knee joints),[3]; 5 mg/kg oral daily,significant reduction of synovial inflammation
same,disease incidence and onset,[3],reduced disease incidence and delayed onset of disease
same,reduction in clinical score compared to saline,"[3]; 5 mg/kg oral daily, dose-response comparison",49%
same,joint destruction (radiographic score),[3]; 10 mg/kg oral daily,significantly decreased
same,reduction in arthritis score compared to saline,[3]; 10 mg/kg oral daily,39%
same,decrease in paw swelling compared to saline-treated mice,[3]; [4],39%
same,decrease of AUC of clinical score compared to control mice,[3]; [4],51%
"COc1ccc(NC(=O)N2CCNC[C@@H]2COc2cccnc2)cc1 [PMP-072, (R)-N-(4-methoxyphenyl)-2-((pyridin-3-yloxy)methyl)piperazine-1-carboxamide]",Ki,[1],1800 nM
same,Ki,[2],> 100 µM
same,Ki,rat α7 nAChR,6.9 ± 1.4 nM
same,agonist activity at α7 nAChR ion channel,human α7 nAChR,did not appear to be an agonist
same,IC50,"human α7 nAChR; co-applied with 60 μM ACh, read-out: IC50, antagonism of ACh-stimulated α7 nAChR channel activity",20 to 50 nM
same,Ki,α4β2 nAChR,> 100000 nM
same,effect on arthritis activity,[3]; 5 mg/kg oral daily,did not significantly ameliorate arthritis activity; also recorded: trend towards improvement
same,joint destruction (radiographic score),[3]; 5 mg/kg oral daily,did not reduce bone degradation
same,disease incidence and onset,[3],trend towards reduced incidence of disease
same,joint destruction (radiographic score),[3]; 10 mg/kg oral daily,trend towards reduced joint destruction
same,paw swelling,[3]; 10 mg/kg oral daily,decrease in paw swelling
same,reduction in arthritis score compared to saline,[3]; 10 mg/kg oral daily,48%
same,synovial inflammation (synovitis score),[3]; 10 mg/kg oral daily,significantly lower scores for synovitis
same,effect on arthritis score,[3]; 20 mg/kg oral daily,no improvement
same,tolerability of treatment,[3]; [4],tolerated the drug treatment well
same,tolerability of treatment,"[3]; study 2, PMP-311 2 and 10 mg/kg, PMP-072 10 and 20 mg/kg",tolerated the drug treatments well
